Experimental data: ChEMBL document CHEMBL4477251, “Vialinin A and thelephantin G, potent inhibitors of tumor necrosis factor-α production, inhibit sentrin/SUMO-specific protease 1 enzymatic activity” (Bioorg Med Chem Lett, 2016)
Activity calls are given as the source filed them. The calls are words filed in the database; no cut-off is given here.

Assays:
[1] = target: T1, Sentrin-specific protease 1 (Homo sapiens, UniProt Q9P0U3); assay: Inhibition of recombinant human 6His-tagged SENP1 catalytic domain expressed in Escherichia coli preincubated for 15 mins followed by addition of SUMO1-AMC as substrate measured after 1 hr by fluorescence analysis
T1 sequence (Q9P0U3 whole entry): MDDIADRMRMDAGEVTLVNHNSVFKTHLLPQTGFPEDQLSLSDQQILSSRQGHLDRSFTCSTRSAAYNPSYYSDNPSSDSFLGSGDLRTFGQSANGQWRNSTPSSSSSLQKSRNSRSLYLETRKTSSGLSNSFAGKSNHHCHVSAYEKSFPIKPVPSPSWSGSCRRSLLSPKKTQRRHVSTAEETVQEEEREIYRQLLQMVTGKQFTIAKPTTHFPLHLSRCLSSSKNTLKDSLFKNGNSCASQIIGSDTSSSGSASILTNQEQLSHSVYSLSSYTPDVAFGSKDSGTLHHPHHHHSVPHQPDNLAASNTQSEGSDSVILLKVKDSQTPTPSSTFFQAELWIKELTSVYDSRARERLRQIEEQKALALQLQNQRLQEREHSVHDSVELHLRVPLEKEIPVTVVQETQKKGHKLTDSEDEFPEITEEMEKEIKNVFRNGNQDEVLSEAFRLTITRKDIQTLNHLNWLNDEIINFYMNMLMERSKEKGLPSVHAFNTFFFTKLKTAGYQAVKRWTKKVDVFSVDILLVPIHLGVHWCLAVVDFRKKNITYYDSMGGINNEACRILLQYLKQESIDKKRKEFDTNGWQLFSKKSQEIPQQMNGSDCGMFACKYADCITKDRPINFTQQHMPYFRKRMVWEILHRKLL

[2] = target: T2, Sentrin-specific protease 1 (Homo sapiens) (UniProt Q9P0U3); assay: Inhibition of SENP1 in human KU812 cells preincubated for 20 mins followed by addition of HA-SUMO1-VS as substrate measured after 2 hrs by immunoblot analysis; format: cell-based
T2 sequence (whole entry): T1 sequence (Q9P0U3 whole entry)

[3] = target: T1, Sentrin-specific protease 1; assay: Inhibition of full-length recombinant human 6His-tagged SENP1 expressed in Escherichia coli BL21 (DE3) preincubated for 15 mins followed by addition of SUMO1-AMC as substrate measured after 1 hr by fluorescence analysis
[4] = target: T1, Sentrin-specific protease 1; assay: Binding affinity to recombinant human 6His-tagged SENP1 catalytic domain expressed in Escherichia coli
Mast cell = assay: Inhibition of TNF-alpha production in mouse bone marrow-derived mast cells measured after 15 mins by ELISA; format: functional, cell-based; conditions: 0.25 h
[5] = target: T1, Sentrin-specific protease 1; assay: Binding affinity to full-length recombinant human 6His-tagged SENP1 expressed in Escherichia coli BL21 (DE3)
RBL-2H3 = assay: Inhibition of TNF-alpha production in antigen-stimulated rat RBL2H3 cells measured after 15 mins by ELISA; conditions: RBL-2H3, 0.25 h

Row | Compound | IC50 [1] | inhibition [2] | IC50 [3] | Ki [4] | IC50 (Mast cell) | Ki [5] | IC50 (RBL-2H3)
1 | O=C(Cc1ccccc1)Oc1c(OC(=O)Cc2ccccc2)c(-c2ccc(O)cc2)c(O)c(O)c1-c1ccc(O)cc1 [VIALININ A] | 1.89 µM | Active | 1.64 µM | 0.93 µM | 40 pM | 1.07 µM | 
2 | Cc1c(C)c(-c2ccc(OCc3cn(CCCCCCNC(=O)CCCC[C@@H]4SC[C@@H]5NC(=O)N[C@@H]54)nn3)cc2)c(O)c(O)c1-c1ccc(O)cc1 | 9.73 µM |  | > 50 µM |  |  |  | 
3 | CCN1C(=O)C=CC1=O |  | Active |  |  |  |  | 
4 | O=C(Cc1ccc(O)cc1)Oc1c(OC(=O)Cc2ccc(O)cc2)c(-c2ccc(O)cc2)c(O)c(O)c1-c1ccc(O)cc1 |  |  |  |  |  |  | 0.0035 µM
5 | O=C1C(O)=C(c2ccc(O)cc2)C(=O)C(O)=C1c1ccc(O)cc1 | 6.1 µM |  | 3.79 µM |  |  |  | 
6 | Cc1c(C)c(-c2ccc(O)cc2)c(O)c(O)c1-c1ccc(O)cc1 | 3.76 µM | Active | 2.71 µM |  |  |  | 
